# Data as given in PubChem BioAssay AID624374 (Broad Institute, 2012).
# Inconclusive results are not listed. Active and inactive are the calls of the source. How the calls were made is not given here.
# System: HEK293 viability counterscreen, plate reader
# Assay: HEK293 cell viability, dose response, counter-screen for EBV LMP1 inhibitor project, dry powder, set 2 (AID 624374)
# Conditions: not given
row,SMILES,AC35
1,O=C(C[C@H]1C[C@@H]2c3cc(NS(=O)(=O)c4ccc(F)cc4)ccc3O[C@@H]2[C@@H](CO)O1)NCc1ccc(Oc2ccccc2)cc1,23.1 µM
2,Cc1cc(C(=O)Nc2ccc3c(c2)C(=O)N(C)[C@@H]2CC[C@@H](CC(=O)NCc4ccc(-c5ccccc5)cc4)O[C@H]2CO3)no1,> 35 µM (inactive)
3,O=C(C[C@@H]1C[C@@H]2c3cc(NC(=O)c4ccc5c(c4)OCO5)ccc3O[C@@H]2[C@@H](CO)O1)NCc1ccc(Oc2ccccc2)cc1,33.8 µM
4,COc1ccccc1CNC(=O)C[C@@H]1C[C@H]2c3cc(NC(=O)c4ccc5c(c4)OCO5)ccc3O[C@H]2[C@H](CO)O1,> 35 µM (inactive)

# System: not listed separately
# Assay: as above
# Conditions: HEK293 viability counterscreen, plate reader; at 30 µM (top of the series)
row,SMILES,"activity change, negative = viability loss"
1,C[C@H](NC(=O)C[C@@H]1C=C[C@H](NC(=O)Cc2ccccn2)[C@H](CO)O1)c1ccccc1,3.96% (inactive)
2,CN(C)C(=O)c1cccc(-c2cccc(-c3nc(C(=O)NCc4ccccc4)cc4c3[C@@H](CCO)N([S@](=O)C(C)(C)C)C4)c2)c1,-12.3% (inactive)
3,Cc1noc(C)c1S(=O)(=O)Nc1ccc2c(c1)C(=O)N([C@@H](C)CO)C[C@H](C)[C@H](CN(C)Cc1ccc(C(F)(F)F)cc1)OCCCC[C@@H](C)O2,11.8% (inactive)

# Same assay, conditions: HEK293 viability counterscreen, plate reader; at 35 µM (top of the series)
row,SMILES,"activity change, negative = viability loss"
1,COc1ccccc1C#Cc1cnc2c(c1)C(=O)N([C@@H](C)CO)C[C@H](C)[C@@H](CN(C)C(=O)c1ccc3c(c1)OCO3)O2,9.4% (inactive)
2,C/C=C/c1cccc(-c2nc(C(=O)Nc3nccs3)cc3c2[C@@H](CCO)N(C(=O)NC(C)C)C3)c1,4.5% (inactive)
3,Cc1noc(C)c1S(=O)(=O)Nc1ccc2c(c1)C(=O)N([C@@H](C)CO)C[C@@H](C)[C@@H](CN(C)Cc1ccc(C(F)(F)F)cc1)OCCCC[C@@H](C)O2,-11.2% (inactive)
4,O=C(C[C@@H]1C[C@@H]2c3cc(NS(=O)(=O)c4ccc(F)cc4)ccc3O[C@@H]2[C@H](CO)O1)NC1CCCCC1,6.32% (inactive)
5,C[C@@H](NC(=O)C[C@H]1C=C[C@@H](NC(=O)Cc2ccccn2)[C@@H](CO)O1)c1ccccc1,2.73% (inactive)
6,COc1ccc(S(=O)(=O)N(C)C[C@@H]2Oc3ncc(/C=C/c4ccccc4)cc3C(=O)N([C@@H](C)CO)C[C@H]2C)cc1,5.95% (inactive)
7,C[C@@H]1CN([C@H](C)CO)S(=O)(=O)c2ccc(C#C[C@@H](C)O)cc2O[C@H]1CN(C)Cc1ccc(-c2ccccc2)cc1,-18.7% (inactive)
8,CC(C)NC(=O)N1[C@H](CO)[C@H](c2ccc(C#CC3CCCCC3)cc2)[C@@H]1C#N,-6.23% (inactive)
9,C[C@H]1CN([C@@H](C)CO)C(=O)c2cc(C#Cc3ccccc3F)cnc2O[C@@H]1CN(C)C(=O)C1CCCCC1,7.95% (inactive)
10,CC(C)NC(=O)N1Cc2cc(C(=O)NC3Cc4ccccc4C3)nc(-c3cccc(-c4cccnc4)c3)c2[C@H]1CCO,25.1% (inactive)
11,Cc1noc(C)c1S(=O)(=O)Nc1ccc2c(c1)C(=O)N([C@H](C)CO)C[C@@H](C)[C@H](CN(C)Cc1ccc(C(F)(F)F)cc1)OCCCC[C@H](C)O2,-6.47% (inactive)
12,COc1ccccc1C#Cc1ccc2c(c1)O[C@H](CN(C)Cc1cccnc1)[C@H](C)CN([C@H](C)CO)S2(=O)=O,4.43% (inactive)
13,COc1cccc(S(=O)(=O)N(C)C[C@@H]2Oc3cc(C4=CCCCC4)ccc3S(=O)(=O)N([C@H](C)CO)C[C@H]2C)c1,-0.785% (inactive)
14,C[C@@H]1CN([C@H](C)CO)C(=O)c2c(c3ccccc3n2C)-c2ccccc2CO[C@@H]1CN(C)C(=O)Nc1ccc(F)cc1,6.88% (inactive)
15,C[C@@H](NC(=O)C[C@@H]1C=C[C@H](NC(=O)Cc2ccccn2)[C@@H](CO)O1)c1ccccc1,-2.91% (inactive)
16,O=C(C[C@H]1C[C@H]2c3cc(NC(=O)c4ccc5c(c4)OCO5)ccc3O[C@H]2[C@H](CO)O1)NCc1ccc(Oc2ccccc2)cc1,-11.7% (inactive)
17,N#C[C@H]1[C@H](c2ccc(C#Cc3ccccc3F)cc2)[C@@H](CO)N1C(=O)c1cccnc1,4.46% (inactive)
18,CC(C)(C)[S@@](=O)N1Cc2cc(C(=O)NCc3ccccn3)nc(-c3cccc(-c4ccccc4F)c3)c2[C@H]1CCO,2.2% (inactive)
19,COc1cccc(S(=O)(=O)N(C)C[C@@H]2Oc3cc(C4=CCCCC4)ccc3S(=O)(=O)N([C@@H](C)CO)C[C@@H]2C)c1,-1.39% (inactive)
20,COc1ccc(S(=O)(=O)N(C)C[C@H]2Oc3ncc(/C=C/c4ccccc4)cc3C(=O)N([C@H](C)CO)C[C@@H]2C)cc1,13.6% (inactive)
21,O=C(C[C@@H]1C[C@H]2c3cc(NC(=O)c4ccc5c(c4)OCO5)ccc3O[C@H]2[C@H](CO)O1)NC1CCCCC1,2.89% (inactive)
22,COc1cccc(S(=O)(=O)N(C)C[C@H]2Oc3cc(C4=CCCCC4)ccc3S(=O)(=O)N([C@@H](C)CO)C[C@@H]2C)c1,9.06% (inactive)
